Reference: US8063071B2 (GlaxoSmithKline, LLC, priority 2007, dated 2011)
Structures can show the parent of a compound that is named as a salt.

Tests used:
[1] = biological target: T1, Recombinant human IKKβ (residues 1-737) (Homo sapiens, UniProt O14920); experiment: IKK2 assay (TR-FRET); assay type: biochemical; settings: ATP 1 μM final, read-out: pIC50 against IKK2 (converted)
T1 construct: Recombinant human IKKβ (residues 1-737); GST (C); made in house
T1 sequence (O14920 1-737): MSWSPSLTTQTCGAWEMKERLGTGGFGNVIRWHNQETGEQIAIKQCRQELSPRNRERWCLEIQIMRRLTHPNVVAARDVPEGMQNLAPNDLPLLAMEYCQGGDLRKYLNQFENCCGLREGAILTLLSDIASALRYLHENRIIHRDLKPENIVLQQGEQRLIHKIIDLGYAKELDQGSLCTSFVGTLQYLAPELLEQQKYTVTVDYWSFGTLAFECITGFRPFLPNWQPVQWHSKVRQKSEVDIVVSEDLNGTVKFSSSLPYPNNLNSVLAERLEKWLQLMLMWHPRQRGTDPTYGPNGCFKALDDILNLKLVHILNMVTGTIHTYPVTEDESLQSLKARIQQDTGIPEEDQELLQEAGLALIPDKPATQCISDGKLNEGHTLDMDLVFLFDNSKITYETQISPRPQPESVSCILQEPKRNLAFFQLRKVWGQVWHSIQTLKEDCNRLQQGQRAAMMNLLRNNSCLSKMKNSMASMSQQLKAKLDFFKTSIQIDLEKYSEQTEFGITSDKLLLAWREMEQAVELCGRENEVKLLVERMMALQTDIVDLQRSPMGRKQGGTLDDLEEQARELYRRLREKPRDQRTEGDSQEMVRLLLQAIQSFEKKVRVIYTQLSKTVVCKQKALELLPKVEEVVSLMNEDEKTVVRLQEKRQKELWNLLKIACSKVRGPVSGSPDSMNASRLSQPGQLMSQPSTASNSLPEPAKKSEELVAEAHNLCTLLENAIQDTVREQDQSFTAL
Method in brief: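 TR-FRET readout (665 nm over 620 nm Eu reference) of GST-IB Ser32/36 phosphorylation after 60 min detection. Reaction: 1 μM ATP, 25 nM substrate, 0.5-5 nM GST-fused IKKβ 1-737 from baculovirus, pH 7.4 HEPES buffer, 1.7% DMSO, 15 min room temperature, EDTA-terminated.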

[2] = tested on: human monocyte stimulated cytokine production (TNF-α); experiment: Monocyte assay (LPS-stimulated TNF-α production); assay type: cell-based; settings: for IC50: 24 h, 200 ng/mL LPS, TNF-α by ELISA
Method in brief: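 TNF-α release was measured by ELISA after 24 hrs at 37 C. Cells were stimulated with 200 ng/mL E. coli LPS, with compound added 30 minutes beforehand (0.1% DMSO vehicle). Cells were Ficoll/MACS-isolated CD14+ human monocytes adhered at 1×10^6 cells/mL, and viability was checked by trypan blue.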

Row | IC50 [1] | IC50 [2] | SMILES | inhibition at 0.3 µM ([2]; read-out: inhibition at 300 nM in the monocyte assay)
1 | ≤ 10 µM | > 1 µM | CCS(=O)(=O)N1CCC(c2c[nH]c3c(C(N)=O)cc(-c4cc(CN[C@H](C)C(C)C)ccc4F)cc23)CC1 [Example 338, 5-[5-({[(1R)-1,2-dimethylpropyl]amino}methyl)-2-fluorophenyl]-3-[1-(ethylsulfonyl)-4-piperidinyl]-1H-indole-7-carboxamide trifluoroacetate] | –
2 | ≤ 10 µM | ≤ 1.5 µM | CCS(=O)(=O)N1CCC(c2c[nH]c3c(C(N)=O)cc(-c4csc(CN5CCCC5)n4)cc23)CC1 [Example 353, 3-[1-(ethylsulfonyl)-4-piperidinyl]-5-[2-(1-pyrrolidinylmethyl)-1,3-thiazol-4-yl]-1H-indole-7-carboxamide] | 0 to 60%
3 | ≤ 10 µM | ≤ 1.5 µM | CCS(=O)(=O)N1CCC(c2c[nH]c3c(C(N)=O)cc(-c4cccc(C(C)NC)c4)cc23)CC1 (centres unmarked) [Example 292, 3-[1-(ethylsulfonyl)-4-piperidinyl]-5-{3-[1-(methylamino)ethyl]phenyl}-1H-indole-7-carboxamide trifluoroacetate] | –
4 | ≤ 10 µM | ≤ 1.5 µM | CCS(=O)(=O)N1CCC(c2c[nH]c3c(C(N)=O)cc(-c4coc(CNC)c4)cc23)CC1 [Example 237, 3-[1-(ethylsulfonyl)-4-piperidinyl]-5-{5-[(methylamino)methyl]-3-furanyl}-1H-indole-7-carboxamide trifluoroacetate] | –
5 | ≤ 10 µM | ≤ 1.5 µM | CCS(=O)(=O)N1CCC(c2c[nH]c3c(C(N)=O)cc(-c4ccc(CN5CCCC5C)s4)cc23)CC1 (centres unmarked) [Example 167, 3-[1-(ethylsulfonyl)-4-piperidinyl]-5-{5-[(2-methyl-1-pyrrolidinyl)methyl]-2-thienyl}-1H-indole-7-carboxamide] | –
6 | ≤ 10 µM | ≤ 1.5 µM | CCS(=O)(=O)N1CCC(c2c[nH]c3c(C(N)=O)cc(-c4coc(CNCC(C)(C)C)c4)cc23)CC1 [Example 244, 5-(5-{[(2,2-dimethylpropyl)amino]methyl}-3-furanyl)-3-[1-(ethylsulfonyl)-4-piperidinyl]-1H-indole-7-carboxamide trifluoroacetate] | –
7 | ≤ 10 µM | > 1 µM | CCS(=O)(=O)N1CCC(c2c[nH]c3c(C(N)=O)cc(-c4cccc(CNS(=O)(=O)c5cc(Cl)sc5Cl)c4)cc23)CC1 [Example 375, 5-[3-({[(2,5-dichloro-3-thienyl)sulfonyl]amino}methyl)phenyl]-3-[1-(ethylsulfonyl)-4-piperidinyl]-1H-indole-7-carboxamide] | –
8 | ≤ 10 µM | > 1 µM | CCS(=O)(=O)N1CCC(c2c[nH]c3c(C(N)=O)cc(-c4ccc(CNOC)cc4)cc23)CC1 [Example 390, 3-[1-(ethylsulfonyl)-4-piperidinyl]-5-(4-{[(methyloxy)amino]methyl}phenyl)-1H-indole-7-carboxamide] | –
9 | ≤ 10 µM | > 1 µM | CCS(=O)(=O)N1CCC(c2c[nH]c3c(C(N)=O)cc(-c4cnn(CCN5CCCC5)c4)cc23)CC1 [Example 253, 3-[1-(ethylsulfonyl)-4-piperidinyl]-5-{1-[2-(1-pyrrolidinyl)ethyl]-1H-pyrazol-4-yl}-1H-indole-7-carboxamide trifluoroacetate] | –
10 | ≤ 10 µM | ≤ 1.5 µM | CCS(=O)(=O)N1CCC(c2c[nH]c3c(C(N)=O)cc(-c4ccc(CNC(=O)C5CCCC5)cc4)cc23)CC1 [Example 130, 5-(4-{[(cyclopentylcarbonyl)amino]methyl}phenyl)-3-[1-(ethylsulfonyl)-4-piperidinyl]-1H-indole-7-carboxamide] | –
11 | ≤ 10 µM | ≤ 1.5 µM | CCS(=O)(=O)N1CCC(c2c[nH]c3c(C(N)=O)cc(-c4cc(CN(C)C)cs4)cc23)CC1 [Example 211, 5-{4-[(dimethylamino)methyl]-2-thienyl}-3-[1-(ethylsulfonyl)-4-piperidinyl]-1H-indole-7-carboxamide trifluoroacetate] | –
